Consider two compounds from ChEMBL document CHEMBL5523739, “NN1213 - A Potent, Long-Acting, and Selective Analog of Human Amylin” (J Med Chem, 2024).

The species entered for assay [1] is Rattus norvegicus. Kind of assay: Selectivity ratio of IC50 for rat CTR expressed in Baby hamster kidney cell membrane to IC50 for rat AMY3R complex of CTR/RAMP3 expressed in Baby hamster kidney cell membrane. In kind it is cell-based.
For assay [2], the species on record is Homo sapiens. The assay can be described thus: Selectivity ratio of IC50 for human CTR expressed in Baby hamster kidney cell membrane to IC50 for human AMY3R complex of CTR/RAMP3 expressed in Baby hamster kidney cell membrane. It counts as cell-based.
The species named for assay [3] is Homo sapiens. Kind of assay: Selectivity ratio of EC50 for human CTR expressed in Baby hamster kidney cells to EC50 for human AMY3R complex of CTR/RAMP3 expressed in Baby hamster kidney cells. In kind it is cell-based.
The species entered for assay [4] is Rattus norvegicus. The assay can be described thus: Selectivity ratio of EC50 for rat CTR expressed in Baby hamster kidney cells to EC50 for rat AMY3R complex of CTR/RAMP3 expressed in Baby hamster kidney cells. In kind it is cell-based.
For assay [5], the system named is Rattus norvegicus. Kind of assay: Appetite suppressing activity in rat assessed as reduction in food intake at 30 nmol/kg, sc measured for 24 to 48 hrs relative to control. It counts as functional. Details: scale not given: the % may be the effect or the level left. To be noted: time 24-48 hrs.
For assay [6], the system named is Rattus norvegicus. The assay can be described thus: Appetite suppressing activity in rat assessed as reduction in food intake at 30 nmol/kg, sc measured upto 24 hrs relative to control. In kind it is functional. Details: scale not given: the % may be the effect or the level left.

With `CC[C@H](C)[C@H](NC(=O)[C@H](C)NC(=O)CNC(=O)[C@H](Cc1ccccc1)NC(=O)[C@H](CC(N)=O)NC(=O)[C@@H]1CCCN1C(=O)[C@H](CO)NC(=O)[C@H](CO)NC(=O)[C@H](Cc1c[nH]cn1)NC(=O)[C@H](CCCNC(=N)N)NC(=O)[C@H](CC(C)C)NC(=O)[C@H](Cc1ccccc1)NC(=O)[C@H](CC(=O)O)NC(=O)[C@H](C)NC(=O)[C@H](CC(C)C)NC(=O)[C@H](CCCNC(=N)N)NC(=O)[C@H](CCC(N)=O)NC(=O)[C@@H](NC(=O)[C@H](C)NC(=O)[C@@H]1CSSC[C@H](NC(=O)[C@@H](N)CCCCN)C(=O)N[C@@H](CC(N)=O)C(=O)N[C@@H]([C@@H](C)O)C(=O)N[C@@H](C)C(=O)N[C@@H]([C@@H](C)O)C(=O)N1)[C@@H](C)O)C(=O)N1CCC[C@H]1C(=O)N[C@@H](CO)C(=O)N[C@H](CO)C(=O)N[C@H](C(=O)N[C@@H](CC(N)=O)C(=O)N[C@H](C(=O)NCC(=O)N[C@@H](CO)C(=O)N[C@@H](CC(=O)O)C(=O)N[C@H](C(=O)N[C@@H](Cc1ccc(O)cc1)C(N)=O)[C@@H](C)O)C(C)C)[C@@H](C)O`, the figures for the Ratio IC50 in assay [1] and in assay [2] were 447 and 55, respectively. Besides, the Ratio EC50 in assay [3] was 15; in assay [4], 1340.

For the compound `CC[C@H](C)[C@H](NC(=O)[C@H](C)NC(=O)CNC(=O)[C@H](Cc1ccccc1)NC(=O)[C@H](CC(N)=O)NC(=O)[C@@H]1CCCN1C(=O)[C@H](CO)NC(=O)[C@H](CO)NC(=O)[C@H](Cc1c[nH]cn1)NC(=O)[C@H](CCCNC(=N)N)NC(=O)[C@H](CC(C)C)NC(=O)[C@H](Cc1ccccc1)NC(=O)[C@H](CC(=O)O)NC(=O)[C@H](C)NC(=O)[C@H](CC(C)C)NC(=O)[C@H](CCCNC(=N)N)NC(=O)[C@H](CCC(N)=O)NC(=O)[C@@H](NC(=O)[C@H](C)NC(=O)[C@@H]1CSSC[C@H](NC(=O)[C@@H](N)CCCCN)C(=O)N[C@@H](CC(N)=O)C(=O)N[C@@H]([C@@H](C)O)C(=O)N[C@@H](C)C(=O)N[C@@H]([C@@H](C)O)C(=O)N1)[C@@H](C)O)C(=O)N1CCC[C@H]1C(=O)N[C@@H](CO)C(=O)N[C@@H](CO)C(=O)N[C@H](C(=O)N[C@@H](CC(N)=O)C(=O)N[C@H](C(=O)NCC(=O)N[C@@H](CO)C(=O)N[C@@H](CC(=O)O)C(=O)N[C@H](C(=O)N[C@@H](Cc1ccc(O)cc1)C(N)=O)[C@@H](C)O)C(C)C)[C@@H](C)O`, the Activity worked out at 62% in assay [5] and 72% in assay [6].
